# Source: US7741521B2, “Inhibition of bid-induced cell-death using small organic molecules” (The Burnham Institute, priority 2004, dated 2010)
# Test system: primary hippocampal neurons
# Test: Glutamate-induced cell death in primary hippocampal neurons
# Format: cell-based
# Protocol: Primary cultures were obtained from embryonic day 18 rats and cultured in Neurobasal medium (Invitrogen, Karlsruhe, Germany) supplemented with 5 mM HEPES, 1.2 mM glutamine, B27 supplement (Invitrogen, 20 ml/l) and gentamicin (0.1 mg/ml) as described in the art. Glutamate (20 μM) was added in 9-10 day old cultures in EBSS medium (6800 mg/L NaCl, 400 mg/L KCl, 264 mg/L CaCl2×2H2O, 200 mg/L MgCl2×7H2O, 2200 mg/L NaHCO3, 140 mg/L NaH2PO4×H2O, 10 mM glucose, pH 7.2).
# Neuronal cell death was quantified after staining the nuclei with the DNA-binding fluorochrome Hoechst 33258 (Molecular Probes) or by the MTT assay. Immunocytochemistry was performed as described in the art, with a polyclonal anti-AIF antibody (sc-9416, Santa Cruz; 1:200) followed by incubation a biotinylated anti-goat IgG antibody (1:200) Vector Laboratories) and Oregon Green-streptavidin (Molecular Probes). […]
# To assess whether the compounds of the present invention would also prevent neuronal cell death in primary cultures, a number of cell-based assays were performed. […] Twenty-four hours later, apoptotic nuclei were quantified after staining with Hoechst 33342. In a separate experiment (FIG. 11C), the protective effect of Compound I against glutamate-induced cell death was quantified by the MTT assay. […]
compound,measurement,setting,value
"Nc1ccc(Sc2ccc(NC(=O)CNC(=O)c3ccc(O)cc3O)cc2)cc1 [Compound I, N-((4-(4-aminophenylthio)phenylcarbamoyl)methyl)-2,4-dihydroxybenzamide]",concentration range of dose-dependent neuroprotective effect,"1 hour pretreatment, glutamate 20 μM, 24 hours, Hoechst 33342 apoptotic nuclei",0.2 to 2 µM
same,toxicity to primary hippocampal neurons,at higher concentrations (20 μM),some toxicity
